# From patent US20240252472A1, “COMBINATIONS FOR TREATING CANCER” (Purdue Pharma L.P., priority 2023, published 2024)
# Assays:
# [1] = system: CD38; assay: CD38 expression by western blot in MM cell lines; format: cell-based, human
# Procedure: Western Blot Analysis Cells were collected and centrifuged at 1200 rpm for 5 minutes at 4° C. Cells were washed with PBS and lysed in ice-cold lysis buffer [140 mmol/L NaCl, 10 mmol/L EDTA, 10% glycerol, 1% NP40, 20 mmol/L Tris (pH 7), 1 μMol/L pepstatin, 1 μg/mL aprotinin, 1 μg/mL leupeptin, 1 mmol/L sodium orthovanadate]. Samples were centrifuged at 10,000×g at 4° C. for 10 minutes, and supernatants were transferred to new tubes and western blots were performed following standard procedures. CD38 and anti-α-tubulin primary antibodies used in Western blot analyses were obtained from Cell Signaling (Boston, MA, USA). The horseradish peroxidase-conjugated secondary antibodies were from GE Healthcare (Chicago, IL, USA).
# [2] = system: CD38; assay: CD38 expression by immunofluorescence in MM cell lines; format: cell-based, human; conditions: RPMI-8226, MOLP-8; 2.5 μM; relative to DMSO control
# Procedure: Immunofluorescence After appropriate treatments in vitro, cells were placed on glass slides coated with poly-L-lysine followed by 15 minutes incubation in a cell culture incubator. Cells were fixed with 4% paraformaldehyde for 30 minutes, blocked with BSA 100 μg/mL for 1 h at room temperature and incubated with a primary antibody (anti-CD38 antibody (1:100)) overnight at 4° C. The incubation with the anti-mouse secondary antibody, labelled with Alexa Fluor 488, was performed in darkness for 1 h at room temperature. After three washes for 5 min in PBS, nuclei were stained with DAPI (Sigma) 1:1000 in PBS for 5 min at room temperature. Finally, cells were washed three times for 10 min in PBS and slides were then mounted using VECTASHIELD Mounting Medium (Vector Laboratories, Burlingame, CA). Fluorescent images were acquired with a LEICA SP5 DMI-6000B confocal microscope (Leica, Wetzlar, Germany) with a 63.0× lens zoomed in 6×.
# [3] = system: CD38 mRNA; assay: CD38 mRNA by RT-qPCR in MM cell lines; format: cell-based, human; conditions: MM1.S, JJN3, RPMI-8226; 1 and 2.5 μM, 36 hours
# Procedure: Real time quantitative PCR (RT-qPCR) Total RNA was isolated using the RNeasy Mini Kit (Qiagen, Hilden, Germany). Following reverse transcription, PCR was performed using TaqMan Gene Expression Assays (Applied Biosystems, Foster City, CA, USA): CD38 (Hs01120071_m1), MICA (Hs00741286_m1), MICB (Hs00792952_m1) and GAPDH (Hs99999905_m1). The results were expressed as fold change relative to expression of the target gene in control cells, using endogenous expression of GAPDH for normalization.
# [4] = system: CD38; assay: CD38 expression on primary myeloma cells from patients ex vivo, flow cytometry; format: cell-based, human; conditions: 2.5 μM, 48 hours; 3 out of 11 patients (low basal expression); not observed with high basal CD38
# Procedure: (§1) For surface staining, cells were incubated with the appropriate antibodies and 7AAD (Immunostep) for 15 min in the dark. Data were acquired using a FACSCalibur cytometer (BD Biosciences) and analyzed using Infinicyt™ software (Cytognos). Specifically, the expression of CD38 or ligands for NK cell activating receptors (MICA, MICB, ULBP1-3, PVR and CD112) in MM cell lines was determined on the viable cell population (7AAD-). In primary myeloma cells, the expression of CD38 was analyzed over the viable myeloma population using the panel CD138-FITC/CD56-PE/7AAD/CD38-APC, whereas MICA/B-AF488/CD56-PE/7AAD/CD38-APC panel was used to determine MICA/B expression. Normalized median fluorescence intensity (MFI) was calculated by dividing median fluorescence obtained with the specific antibody by median fluorescence of the corresponding isotype control. MFI for each treatment was expressed as a percentage relative to the control (100%, cells cultured in media with DMSO).
# CD38 expression was further examined by flow cytometry in malignant plasma cells from ex vivo cultures of 11 MM patients' bone marrow samples treated with tinostamustine (2.5 μM) for 48 hours.
# [5] = system: MICA; assay: MICA expression on MM patients' plasma cells ex vivo; format: cell-based, human; conditions: 6 out of the 9 patients analyzed, 48 hours
# Procedure: as §1
# [6] = system: MICB; assay: MICB expression on MM patients' plasma cells ex vivo; format: cell-based, human; conditions: 3 out of 6 patients analyzed, 48 hours
# Procedure: as §1
# [7] = system: MM1S-luc derived tumors; assay: Disseminated human myeloma model, CB17-SCID mice; format: in vivo; conditions: EDO-S101 15 mg/kg i.v. weekly, daratumumab 8 mg/kg i.p. weekly, 4 weeks; vehicle 33 days
# Procedure: MM1S-luc cells (3×10^6) were injected intravenously (i.v.) into CB17-SCID mice which were determined to have normal NK cells, monocytes and granulocytes (The Jackson Laboratory, Bar Harbor, ME, USA). Tumor development was monitored by non-invasive bioluminescence imaging (BLI) with a Xenogen IVIS 50 system (Caliper Life Sciences, Hopkinton, MA, USA). Mice were randomized into four groups (n=5/group): one receiving vehicle (i.v., weekly), another group receiving EDO-S101 (15 mg/kg i.v., weekly on Tuesdays), another group receiving daratumumab (8 mg/kg i.p., weekly on Wednesdays) and the last group receiving the double combination of EDO-S101+daratumumab. Both drugs were administered over a period of 4 weeks.
# CB17-SCID mice bearing MM1S-luc derived tumors were treated with EDO-S101, daratumumab, a combination thereof, or vehicle, in accordance with the methods outlined above. MM1S-Luc cells (3×10^6) were intravenously injected into CB17-SCID mice. After 2 weeks, mice were randomized into four groups: one receiving vehicle (i.v., weekly), another group receiving EDO-S101 (15 mg/kg i.v., weekly on Tuesdays), another group receiving daratumumab (8 mg/kg i.p., weekly on Wednesdays) and the last group received the double combination of EDO-S101+daratumumab. Survival of mice analyzed with a Kaplan-Meier curve. Both drugs were administered over a period of 4 weeks.
smiles,measurement,setting,value
"Cn1c(CCCCCCC(=O)NO)nc2cc(N(CCCl)CCCl)ccc21 [EDO-S101, 7-(5-(bis(2-chloroethyl)amino)-1-methyl-1H-benzo[d]imidazol-2-yl)-N-hydroxyheptanamide]","CD38 expression, western blot","[1]; MM1.S, JJN3, RPMI-8226, 1 and 2.5 μM",increased
same,increase in CD38 by Western blot and RT-qPCR,[1]; MOLP-8 cells,not observed
same,"CD38 expression, immunofluorescence",[2],increased
same,CD38 expression at the transcriptional level (qPCR),[3],increased
same,CD38 expression in primary myeloma cells,[4],slightly increased
same,expression of MICA in tinostamustine-treated vs DMSO-treated patient cells,[5],at least twice
same,"increase of MICB expression after treatment, patient cells",[6],more than 1.5 fold
same,median survival,[7],45 days
